Laboratory results as given in patent publication US12295936B2, “Immunomodulating urea azalides” (Zoetis Services LLC, priority 2020, dated 2025).
Where two headings read alike, the source gives them in different places.

Legend:
IL-1β = test: LPS-stimulated whole bovine blood assay, MSD cytokine detection; assay type: cell-based; settings: overstimulation of IL-1β, LPS-stimulated bovine whole blood
Protocol: (§1) The effect of multiple cytokines was not easily quantified using single cell types. Therefore, a fresh whole bovine blood assay was developed with LPS as a stimulant (TLR-4 agonist) and with IL-1β and TNF-α as the read-out. Compounds of the invention were evaluated against a positive control for their ability to inhibit LPS-induced IL-1β and TNF-α as an overall evaluation of relative potency and modulation of target pathways (Table 6).
In order to correlate RNA sequencing data to cytokine changes the whole blood assay was utilized. […] The enhancement result represents an overall stimulation of cytokine levels due to cellular stress or potential toxicity with increasing concentrations of the compound, representing a typical bell shape response curve for immunomodulatory activity.
In the bovine whole blood in vitro screening assay the inhibition of TNFα as induced by stimulation by lipopolysaccharide (LPS) and as measured by half the maximal inhibitory concentration (IC50) is recognized as the primary biomarker of immunomodulation potency upon pretreatment with the compounds of the invention.

TNF-α = test: as above; assay type: cell-based; settings: LPS-stimulated bovine whole blood, read-out: TNF-α (IC50 μM)
Protocol: as §1, with “Therefore,” for “The effect of multiple cytokines was not easily quantified using single cell types. Therefore,”
In the bovine whole blood in vitro screening assay the inhibition of TNFα as induced by stimulation by lipopolysaccharide (LPS) and as measured by half the maximal inhibitory concentration (IC50) is recognized as the primary biomarker of immunomodulation potency upon pretreatment with the compounds of the invention. IL-1β is a mediator of the inflammation response and is involved in a number of cellular activities including proliferation, differentiation and apoptosis. IL-1β is also released upon cellular stress or cytotoxicity or upon TLR stimulation. In the bovine whole blood assay the stimulation of IL-1β release upon increasing concentration of test compound is seen as a potential cellular toxicity signal as induced by the test compound. In order to estimate a therapeutic index from the in vitro assay a differential between the TNFα IC50 (immunomodulation potency) versus the perceived cellular toxicity concentration (IL-1β release or overstimulation) was utilized.

[1] = system: BRD pathogens, M. haemolytica and P. multocida; test: MIC screening panel of BRD pathogens (antibacterial / non-antibacterial); settings: read-out: antibacterial / non-antibacterial (MIC for the BRD pathogens)

IC50 (TNF-α) [µM]	IC50 (TNF-α; Bos taurus) [µM]	Structure (SMILES)	IL-1β OS of LPS (IL-1β) [µM]	MIC [1] [µg/mL]
32		CC[C@H]1OC(=O)[C@H](C)[C@@H](O[C@H]2C[C@@](C)(OC)[C@](C)(O)[C@H](C)O2)[C@H](C)[C@@H](O[C@@H]2O[C@H](C)C[C@H](N(C)C(=O)N(C)c3ccccc3)[C@H]2O)[C@](C)(O)C[C@@H](C)CN[C@H](C)[C@@H](O)[C@]1(C)O [Example B-1a, 1-((2S,3R,4S,6R)-2-(((2R,3S,4R,5R,8R,10R,11R,12S,13S,4R)-2-ethyl-3,4,10-trihydroxy-13-(((2R,4R,5R,6S)-5-hydroxy-4-methoxy-4,5,6-trimethyltetrahydro-2H-pyran-2-yl)oxy)-3,5,8,10,12,14-hexamethyl-11S-oxo-1-oxa-6-azacyclopentadecan-11-yl)oxy)-3-hydroxy-6-methyltetrahydro-2H-pyran-4-yl)-1,3-dimethyl-3-phenylurea]	40	
	45	CCCNC[C@]1(O)[C@H](C)O[C@@H](O[C@H]2[C@H](C)[C@@H](O[C@@H]3O[C@H](C)C[C@H](N(C)C(=O)N(C)Cc4ccccc4)[C@H]3O)[C@](C)(O)C[C@@H](C)CN[C@H](C)[C@@H](O)[C@](C)(O)[C@@H](CC)OC(=O)[C@@H]2C)C[C@@]1(C)OC [Example H-40, 1-benzyl-3-((2S,3R,4S,6R)-2-(((2R,3S,4R,5R,8R,10R,11R,12S,13S,14R)-2-ethyl-3,4,10-trihydroxy-13-(((2R,4R,5S,6S)-5-hydroxy-4-methoxy-4,6-dimethyl-5-((propylamino)methyl)tetrahydro-2H-pyran-2-yl)oxy)-3,5,8,10,12,14-hexamethyl-15-oxo-1-oxa-6-azacyclopentadecan-11-yl)oxy)-3-hydroxy-6-methyltetrahydro-2H-pyran-4-yl)-1,3-dimethylurea]	40	> 64
	> 250	CCCNC[C@]1(O)[C@H](C)O[C@@H](O[C@H]2[C@H](C)[C@@H](O[C@@H]3O[C@H](C)C[C@H](N(C)C(=O)N(C)c4cnccn4)[C@H]3O)[C@](C)(O)C[C@@H](C)CN[C@H](C)[C@@H](O)[C@](C)(O)[C@@H](CC)OC(=O)[C@@H]2C)C[C@@]1(C)OC [Example H-46, 1-((2S,3R,4S,6R)-2-(((2R,3S,4R,5R,8R,10R,11R,12S,13S,14R)-2-ethyl-3,4,10-trihydroxy-13-(((2R,4R,5S,6S)-5-hydroxy-4-methoxy-4,6-dimethyl-5-((propylamino)methyl)tetrahydro-2H-pyran-2-yl)oxy)-3,5,8,10,12,14-hexamethyl-15-oxo-1-oxa-6-azacyclopentadecan-11-yl)oxy)-3-hydroxy-6-methyltetrahydro-2H-pyran-4-yl)-1,3-dimethyl-3-(pyrazin-2-yl)urea]	100	
	9	CCCNC[C@]1(O)[C@H](C)O[C@@H](O[C@H]2[C@H](C)[C@@H](O[C@@H]3O[C@H](C)C[C@H](N(C)C(=O)N(CC(F)(F)F)c4ccccc4)[C@H]3O)[C@](C)(O)C[C@@H](C)CN[C@H](C)[C@@H](O)[C@](C)(O)[C@@H](CC)OC(=O)[C@@H]2C)C[C@@]1(C)OC [Example H-54, 1-((2S,3R,4S,6R)-2-(((2R,3S,4R,5R,8R,10R,11R,12S,13S,14R)-2-ethyl-3,4,10-trihydroxy-13-(((2R,4R,5S,6S)-5-hydroxy-4-methoxy-4,6-dimethyl-5-((propylamino)methyl)tetrahydro-2H-pyran-2-yl)oxy)-3,5,8,10,12,14-hexamethyl-15-oxo-1-oxa-6-azacyclopentadecan-11-yl)oxy)-3-hydroxy-6-methyltetrahydro-2H-pyran-4-yl)-1-methyl-3-phenyl-3-(2,2,2-trifluoroethyl)urea]	6	> 64
	30	CCCNC[C@]1(O)[C@H](C)O[C@@H](O[C@H]2[C@H](C)[C@@H](O[C@@H]3O[C@H](C)C[C@H](N(C)C(=O)Nc4ccc(C#N)cc4)[C@H]3O)[C@](C)(O)C[C@@H](C)CN[C@H](C)[C@@H](O)[C@](C)(O)[C@@H](CC)OC(=O)[C@@H]2C)C[C@@]1(C)OC [Example H-77, 3-(4-cyanophenyl)-1-((2S,3R,4S,6R)-2-(((2R,3S,4R,5R,8R,10R,11R,12S,13S,14R)-2-ethyl-3,4,10-trihydroxy-13-(((2R,4R,5S,6S)-5-hydroxy-4-methoxy-4,6-dimethyl-5-((propylamino)methyl)tetrahydro-2H-pyran-2-yl)oxy)-3,5,8,10,12,14-hexamethyl-15-oxo-1-oxa-6-azacyclopentadecan-11-yl)oxy)-3-hydroxy-6-methyltetrahydro-2H-pyran-4-yl)-1-methylurea]	200	> 64
	40	CCCNC[C@]1(O)[C@H](C)O[C@@H](O[C@H]2[C@H](C)[C@@H](O[C@@H]3O[C@H](C)C[C@H](N(C)C(=O)N4CCc5ccccc54)[C@H]3O)[C@](C)(O)C[C@@H](C)CN[C@H](C)[C@@H](O)[C@](C)(O)[C@@H](CC)OC(=O)[C@@H]2C)C[C@@]1(C)OC [Example I-3, N-((2S,3R,4S,6R)-2-(((2R,3S,4R,5R,8R,10R,11R,12S,13S,14R)-2-ethyl-3,4,10-trihydroxy-13-(((2R,4R,5S,6S)-5-hydroxy-4-methoxy-4,6-dimethyl-5-((propylamino)methyl)tetrahydro-2H-pyran-2-yl)oxy)-3,5,8,10,12,14-hexamethyl-15-oxo-1-oxa-6-azacyclopentadecan-11-yl)oxy)-3-hydroxy-6-methyltetrahydro-2H-pyran-4-yl)-N-methylindoline-1-carboxamide]	32	
		CC[C@H]1OC(=O)[C@H](C)[C@@H](O[C@H]2C[C@@](C)(OC)[C@](O)(CN3CCN(c4ncccn4)CC3)[C@H](C)O2)[C@H](C)[C@@H](O[C@@H]2O[C@H](C)C[C@H](N(C)C(=O)N(C)c3ccccc3)[C@H]2O)[C@](C)(O)C[C@@H](C)CN[C@H](C)[C@@H](O)[C@]1(C)O [Example J-13, 1-((2S,3R,4S,6R)-2-(((2R,3S,4R,5R,8R,10R,11R,12S,13S,14R)-2-ethyl-3,4,10-trihydroxy-13-(((2R,4R,5S,6S)-5-hydroxy-4-methoxy-4,6-dimethyl-5-((4-(pyrimidin-2-yl)piperazin-1-yl)methyl)tetrahydro-2H-pyran-2-yl)oxy)-3,5,8,10,12,14-hexamethyl-15-oxo-1-oxa-6-azacyclopentadecan-11-yl)oxy)-3-hydroxy-6-methyltetrahydro-2H-pyran-4-yl)-1,3-dimethyl-3-phenylurea]		> 64
		CC[C@H]1OC(=O)[C@H](C)[C@@H](O[C@H]2C[C@@](C)(OC)[C@](O)(CN3CCC3)[C@H](C)O2)[C@H](C)[C@@H](O[C@@H]2O[C@H](C)C[C@H](N(C)C(=O)N(C)c3ccccc3)[C@H]2O)[C@](C)(O)C[C@@H](C)CN[C@H](C)[C@@H](O)[C@]1(C)O [Example J-22, 1-((2S,3R,4S,6R)-2-(((2R,3S,4R,5R,8R,10R,11R,12S,13S,14R)-13-(((2R,4R,5S,6S)-5-(azetidin-1-ylmethyl)-5-hydroxy-4-methoxy-4,6-dimethyltetrahydro-2H-pyran-2-yl)oxy)-2-ethyl-3,4,10-trihydroxy-3,5,8,10,12,14-hexamethyl-15-oxo-1-oxa-6-azacyclopentadecan-11-yl)oxy)-3-hydroxy-6-methyltetrahydro-2H-pyran-4-yl)-1,3-dimethyl-3-phenylurea]		> 64
		CC[C@H]1OC(=O)[C@H](C)[C@@H](O[C@H]2C[C@@](C)(OC)[C@](O)(Cn3cccn3)[C@H](C)O2)[C@H](C)[C@@H](O[C@@H]2O[C@H](C)C[C@H](N(C)C(=O)N(C)c3ccccc3)[C@H]2O)[C@](C)(O)C[C@@H](C)CN[C@H](C)[C@@H](O)[C@]1(C)O [Example J-23, 1-((2S,3R,4S,6R)-2-(((2R,3S,4R,5R,8R,10R,11R,12S,13S,14R)-13-(((2R,4R,5S,6S)-5-((1H-pyrazol-1-yl)methyl)-5-hydroxy-4-methoxy-4,6-dimethyltetrahydro-2H-pyran-2-yl)oxy)-2-ethyl-3,4,10-trihydroxy-3,5,8,10,12,14-hexamethyl-15-oxo-1-oxa-6-azacyclopentadecan-11-yl)oxy)-3-hydroxy-6-methyltetrahydro-2H-pyran-4-yl)-1,3-dimethyl-3-phenylurea]		> 64
